We go through six molecules from paper PMC11902257, “Antiprotozoal Aminosteroids from Pachysandra terminalis” (Molecules, 2025).

Where “and” joins values, the source holds several entries; their conditions need not be identical. Equal entries are not always repeated. Where two headings read alike, the source gives them in different places.

Type in all cases: cell-based
The subject of series [1] is Plasmodium falciparum (Pf) NF54 strain. The series can be described thus: in vitro antiplasmodial assay, 3H-hypoxanthine incorporation, erythrocytic stages. As to conditions: for SI (Pf): Selectivity index IC50(Cytotox)/IC50(Pf), pure compounds. The procedure: Plasmodium falciparum (Pf): Tests were performed against erythrocytic stages of the drug-sensitive NF54 strain. The NF54 strain was obtained from F. Hoffmann-La Roche Limited (Basel, Switzerland). The strain NF54 was originally derived from a patient living near Schiphol Airport, Amsterdam, who had never left the Netherlands. The assay was performed using a 3H-hypoxanthine incorporation assay. Serial compound dilutions were prepared with the medium as indicated above and then added in 96-well plates to parasite cultures incubated in the medium previously described, consisting of RPMI 1640 supplemented with 0.5% ALBUMAX® II, 25 mM Hepes, 25 mM NaHCO3 (pH 7.3), 0.36 mM hypoxanthine, and 100 μg/mL neomycin. The plates were incubated in a humidified atmosphere at 37 °C, 4% CO2, 3% O2, and 93% N2. After 48 h, 0.25 μCi of 3H-hypoxanthine was added to each well. Incubation was continued under identical conditions for a further 24 h. The plates were then harvested using a Betaplate™ cell harvester (Wallac, Zurich, Switzerland). The red blood cells were transferred onto a glass fiber filter and washed with distilled H2O. After drying, filters were inserted into a plastic foil with 10 mL of scintillation fluid and counted with a Betaplate™ liquid scintillation counter (Wallac, Zurich, Switzerland). Data were treated according to [44] (see below). The positive control was chloroquine.
(§1) Bioassay data and statistical methods: In all cases, the readout data were plotted in Microsoft Excel. Half-maximal inhibitory concentrations (IC50 values) were calculated from the sigmoidal dose-response curves by linear regression. Two independent replicates of the assay were performed in all cases, and the results were expressed as arithmetic mean ± deviation from the mean.

For series [2], the system named is Trypanosoma brucei rhodesiense (Tbr) STIB900 strain. As to the kind of experiment: in vitro antitrypanosomal assay, bloodstream forms, resazurin. The settings on record: for SI(Tbr): Selectivity index IC50(Cytotox)/IC50(Tbr); for IC50: read-out: IC50 Tbr (converted). The procedure: Trypanosoma brucei rhodesiense (Tbr): The STIB900 strain is a derivative of the STIB704 strain isolated from a patient in Ifakara, Tanzania, in 1982 [43]. The bloodstream forms were cultivated as axenic culture in HMI-9 medium, supplemented with 15% heat-inactivated horse serum. Cultures were maintained at 37 °C in an atmosphere of 5% CO2. Test compounds were dissolved in DMSO (10 mg/mL), and serial drug dilutions of eleven 3-fold dilution steps covering a range from 100 to 0.002 μg/mL were prepared in a 96-well plate. Bloodstream-form of T. b rhodesiense strain STIB900 (2 × 10^3/well) was added into the wells. After 68 h incubation, 10 μL of resazurin solution (12.5 mg resazurin in 100 mL 1xPBS) was added per well, and plates were incubated for an additional 4 h. Subsequently, the plates were read with a Spectramax Gemini EM microplate fluorometer (Molecular Devices, San Jose, CA, USA) using an excitation wavelength of 536 nm and an emission wavelength of 588 nm. Data were treated according to [44] (see below). Melarsoprol was used as a positive control.
as §1

Series [3] is described as follows: cytotoxicity against L-6 rat skeletal myoblasts, resazurin. The procedure:
Cytotoxicity against L-6 rat skeletal myoblasts: The L6 rat skeletal myoblast cell line used for cytotoxicity tests was obtained from the American Type Culture Collection (ATCC, Manassas, VA, USA) as ATCC-CRL-1458 [50]. The cells were cultivated in RPMI 1640 medium supplemented with 1% L-glutamine (200mM) and 10% fetal bovine serum. Cultures were maintained at 37 °C in an atmosphere of 5% CO2. Assays were performed in 96-well plates, each well containing RPMI 1640 medium supplemented with 1% L-glutamine (200 mM), 10% fetal bovine serum, and 2 × 10^3 L-6 cells/well. Plates were incubated at 37 °C under a 5% CO2 atmosphere for 24 h. Compounds were dissolved in DMSO (10 mg/mL). After 24 h, serial drug dilutions of eleven 3-fold dilution steps covering a range from 100 to 0.002 μg/mL were prepared, and the plates were incubated at 37 °C under 5% CO2 for 70 h. After 70 h incubation, 10 μL of resazurin solution (12.5 mg resazurin in 100 mL 1xPBS) was added per well, and plates were incubated for an additional 2 h. After that, the plates were read with a Spectramax Gemini EM microplate fluorometer (Molecular Devices, San Jose, CA, USA) using an excitation wavelength of 536 nm and an emission wavelength of 588 nm. Data were treated according to [44] (see below). Podophyllotoxin served as a positive control.
as §1

[4] abbreviates: Trypanosoma brucei, pure compounds, tested as mono- or bis-trifluoroacetates where marked.
[5] abbreviates: Trypanosoma brucei, values in brackets, calculated with the molecular masses of the corresponding salts.
Where [6] appears, read: Plasmodium falciparum, NF54, pure compounds, tested as mono- or bis-trifluoroacetates where marked, read-out: IC50 Pf (converted).
Where [7] appears, read: Plasmodium falciparum, NF54, values in brackets, calculated with the molecular masses of the corresponding salts, read-out: IC50 Pf (converted).
Where [8] appears, read: values in brackets, calculated with the molecular masses of the corresponding salts.

For the molecule `CC(=O)[C@H]1CC[C@H]2[C@@H]3CCC4C[C@@H](N(C)C)CC[C@]4(C)[C@H]3CC[C@]12C` (stereo partly drawn) [Compound 9, 3β-Dimethylamino-pregnane-20-one], the IC50 was 18 µM in series [1] (Plasmodium falciparum, NF54, read-out: IC50 Pf (µM)); 8 ± 2 µg/mL in series [1] (Plasmodium falciparum, NF54, read-out: IC50 Pf [µg/mL]); 2.21 ± 0.06 µg/mL in series [2] (setting [4]); 4.8 µM in series [2] (setting [5]). Also, the “SI (Pf)” value in series [1] was determined as 0.8. In addition, in series [2] (pure compounds), the “SI(Tbr)” value is 3. Moreover, the IC50 at 70 h was 14 µM in series [3] (L6 cells, values in brackets, calculated with the molecular masses of the corresponding salts, read-out: IC50 Cytotox (converted)) and 6 ± 2 µg/mL in series [3] (pure compounds, L6 cells, tested as mono- or bis-trifluoroacetates where marked, read-out: IC50 Cytotox (converted)).

Regarding `C[C@@H]([C@H]1CC[C@H]2[C@@H]3CC[C@H]4C[C@@H](NC(=O)c5cccnc5)CC[C@]4(C)[C@H]3CC[C@]12C)N(C)C` [Compound 4, Epipachysamine B], the IC50 was 2.3 ± 0.2 µg/mL in series [1] (setting [6]), 3.4 µM in series [1] (setting [7]), 1.6 ± 0.5 µg/mL in series [2] (setting [4]) and 2.4 µM in series [2] (setting [5]). The “SI (Pf)” value in series [1] amounted to 2. Besides, the “SI(Tbr)” value in series [2] (pure compounds) is 3. In addition, the IC50 at 70 h in series [3] is 5.2 µg/mL and 7.7 µM.

In the case of `CNC1CCC2(C)C3CCC4(C)C(CCC4C(C)N(C)C)C3CCC2C1OC(=O)c1ccccc1` (stereo not drawn) [Compound 7], the IC50 in series [1] (setting [6]) is 0.45 ± 0.09 µg/mL; in series [1] (setting [7]) it was 0.63 µM; in series [2] (setting [4]), 0.079 ± 0.001 µg/mL; in series [2] (setting [5]), 0.11 µM; in series [2] (setting [8]) it was 0.112 µM. In addition, the “SI (Pf)” value in series [1] was determined as 23. In series [2] (pure compounds), the “SI(Tbr)” value stood at 133. Moreover, the IC50 at 70 h in series [3] was 10 µg/mL and 15 µM.

As for `CN[C@@H](C)[C@H]1CC[C@H]2[C@@H]3CC[C@H]4C[C@@H](N(C)C)CC[C@]4(C)[C@H]3CC[C@]12C` [Compound 3, Desacyl-epipachysamine A], the IC50 in series [1] (setting [6]) is 0.85 ± 0.03 µg/mL; in series [1] (setting [7]), 1.44 µM; in series [2] (setting [4]), 2 ± 0.2 µg/mL; in series [2] (setting [5]) it was 3.5 µM. In addition, the “SI (Pf)” value in series [1] came to 21. Moreover, in series [3], the IC50 at 70 h was 18 µg/mL and 30 µM.

`CN[C@@H]1CC[C@]2(C)[C@H]3CC[C@]4(C)[C@@H]([C@H](C)N(C)C)CC[C@H]4[C@@H]3CC[C@H]2[C@@H]1OC(=O)C=C(C)C` [Compound 10, Pachysandrine D]: the IC50 in series [1] (setting [6]) is 0.66 ± 0.13 µg/mL; in series [1] (setting [7]), 1.01 µM; in series [1] (values in brackets, calculated with the molecular masses of the corresponding salts, read-out: IC50 Pf (converted)), 0.97 µM; in series [2] (setting [4]), 0.69 ± 0.03 µg/mL; in series [2] (setting [5]), 0.95 µM; in series [2] (setting [8]), 1.01 µM. For the same molecule, the “SI (Pf)” value in series [1] is reported as 10. The “SI(Tbr)” value in series [2] (pure compounds) is reported as 9. The IC50 at 70 h in series [3] is 6.5 µg/mL and 9.5 µM.

With `CN[C@@H]1CC[C@]2(C)[C@H]3CC[C@]4(C)[C@@H]([C@H](C)N(C)C)CC[C@H]4[C@@H]3CC[C@@]2(O)[C@@H]1OC(=O)c1ccccc1` [Compound 17, 5α-Hydroxy-3α,4α-diapachysanaximine A], the IC50 is 1.6 ± 0.4 µg/mL in series [1] (setting [6]), 2.3 µM in series [1] (setting [7]), 3 ± 2 µg/mL in series [2] (setting [4]) and 5 µM in series [2] (setting [5]). Besides, the “SI (Pf)” value in series [1] is recorded as 7. Moreover, the “SI(Tbr)” value in series [2] (pure compounds) came out at 3. Further, in series [3], the IC50 at 70 h is 12 µg/mL and 16 µM.
